Earlier results, collected in patent US20090022799A1, “COMPOSITIONS THAT CONTAIN BETA-GLUCAN TO BE USED FOR THE PREVENTION AND TREATMENT OF DISEASE AND METHODS FOR THEIR USE” (priority 2006, published 2009).
Structures can show the parent of a compound that is named as a salt.

Experiments:
[1] = forms a suspension in aqueous solution
[2] = human clinical trials
[3] = β-Glucan particles

| solubility in water [1] | median particle size [3] | Compound | safety and tolerability [2] |
| --- | --- | --- | --- |
| insoluble | 3.7-4.6 μm | Beta-(1→3)-d-Glucan [β-Glucan] | safe and well-tolerated |
| limited solubility | – | [H]/N=C(\N/C(=N/[H])NCCCCCCNC(=N)NC(=N)Nc1ccc(Cl)cc1)Nc1ccc(Cl)cc1 [Chlorhexidine hydrochloride, chlorhexidine hydrochloride, reference compound] | – |
